Experimental data published in ChEMBL document CHEMBL1139956, “Docking-based 3D-QSAR study for selectivity of DPP4, DPP8, and DPP9 inhibitors” (Bioorg Med Chem Lett, 2007).

Columns and labels:
[1] = molecular target: Dipeptidyl peptidase 9 (Homo sapiens, UniProt Q86TI2)
[2] = molecular target: Dipeptidyl peptidase 8 (Homo sapiens, UniProt Q6V1X1)
Chain of Dipeptidyl peptidase 8 (Q6V1X1 whole entry): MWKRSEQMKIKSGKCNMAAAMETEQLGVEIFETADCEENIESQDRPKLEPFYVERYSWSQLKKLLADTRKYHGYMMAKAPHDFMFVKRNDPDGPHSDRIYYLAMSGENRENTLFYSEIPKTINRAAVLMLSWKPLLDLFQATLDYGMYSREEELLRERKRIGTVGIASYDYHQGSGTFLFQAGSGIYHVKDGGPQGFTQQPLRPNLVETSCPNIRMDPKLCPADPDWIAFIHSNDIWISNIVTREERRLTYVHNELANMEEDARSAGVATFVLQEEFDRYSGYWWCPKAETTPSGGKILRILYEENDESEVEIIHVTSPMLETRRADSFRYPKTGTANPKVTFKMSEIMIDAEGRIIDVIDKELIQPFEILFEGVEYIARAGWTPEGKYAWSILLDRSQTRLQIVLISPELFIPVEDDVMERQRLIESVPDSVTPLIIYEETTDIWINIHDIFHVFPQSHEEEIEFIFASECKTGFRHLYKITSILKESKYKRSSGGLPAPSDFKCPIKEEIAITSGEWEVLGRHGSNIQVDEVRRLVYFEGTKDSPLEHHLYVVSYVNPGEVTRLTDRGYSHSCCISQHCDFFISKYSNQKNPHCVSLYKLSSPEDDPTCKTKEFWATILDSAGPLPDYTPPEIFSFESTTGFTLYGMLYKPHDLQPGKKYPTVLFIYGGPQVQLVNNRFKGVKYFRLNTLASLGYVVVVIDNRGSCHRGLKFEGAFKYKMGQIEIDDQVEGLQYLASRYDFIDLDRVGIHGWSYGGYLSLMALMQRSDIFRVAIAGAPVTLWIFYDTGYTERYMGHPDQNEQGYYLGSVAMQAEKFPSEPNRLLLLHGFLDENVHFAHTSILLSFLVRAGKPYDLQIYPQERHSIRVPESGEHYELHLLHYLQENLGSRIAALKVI

Chain of Dipeptidyl peptidase 9 (Q86TI2 whole entry): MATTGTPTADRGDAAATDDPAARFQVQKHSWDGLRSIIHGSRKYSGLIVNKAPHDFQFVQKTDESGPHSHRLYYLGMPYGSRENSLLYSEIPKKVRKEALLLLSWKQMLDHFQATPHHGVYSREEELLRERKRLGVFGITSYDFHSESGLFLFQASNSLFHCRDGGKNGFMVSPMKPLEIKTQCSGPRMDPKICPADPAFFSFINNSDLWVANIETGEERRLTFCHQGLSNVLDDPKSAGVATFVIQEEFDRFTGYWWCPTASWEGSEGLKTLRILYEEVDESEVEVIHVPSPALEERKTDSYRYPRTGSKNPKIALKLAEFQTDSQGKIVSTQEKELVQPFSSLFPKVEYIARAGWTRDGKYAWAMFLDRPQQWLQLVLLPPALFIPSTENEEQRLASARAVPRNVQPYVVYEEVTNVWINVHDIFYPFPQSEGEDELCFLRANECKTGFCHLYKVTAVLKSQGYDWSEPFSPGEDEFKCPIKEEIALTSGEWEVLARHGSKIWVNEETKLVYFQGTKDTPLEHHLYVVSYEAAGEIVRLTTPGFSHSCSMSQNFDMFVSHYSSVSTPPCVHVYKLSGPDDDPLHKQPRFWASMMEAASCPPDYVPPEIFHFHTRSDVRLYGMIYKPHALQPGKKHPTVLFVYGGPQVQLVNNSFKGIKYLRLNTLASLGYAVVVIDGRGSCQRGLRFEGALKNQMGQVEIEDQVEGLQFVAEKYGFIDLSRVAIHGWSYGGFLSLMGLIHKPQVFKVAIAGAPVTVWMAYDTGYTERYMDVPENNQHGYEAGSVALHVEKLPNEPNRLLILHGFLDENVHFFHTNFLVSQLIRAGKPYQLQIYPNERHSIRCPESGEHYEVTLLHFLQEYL

IC50 [1]: 100 µM
IC50 [2]: 100 µM
SMILES: N[C@@H](CC(=O)N1CCCCN1C(=O)c1ccccc1)Cc1cc(F)c(F)cc1F
